Reference: patent US8802638B1, “Flavonoid treatment of glycogen synthase kinase-based disease” (University of South Florida, priority 2007, dated 2014)

Assays:
[1] = tested on: primary neuronal cells derived from Tg2576 mice; test: APP proteolysis (Aβ ELISA, IP, APP CTF Western blot) in Tg2576 mouse-derived primary neuronal cells; assay type: cell-based; conditions: 12 hrs
Description: (§1) Cultured cells or mouse brain were lysed in ice-cold lysis buffer described above, and an aliquot corresponding to 50 μg of total protein was electrophoretically separated using 12% Tris-HCl or 16.5% Tris-tricine gels. Electrophoresed proteins were then transferred to PVDF membranes, washed in dH2O, and blocked for 1 hr at ambient temperature in Tris-buffered saline (TBS; Bio-Rad) containing 5% (w/v) non-fat dry milk. After blocking, membranes were hybridized for 1 hr at ambient temperature with various primary antibodies. Membranes were then washed 3× for 5 min each in dH2O and incubated for 1 hr at ambient temperature with the appropriate HRP-conjugated secondary antibody (1:1,000). Antibodies were obtained against the amino-terminus and carboxyl-terminus of PS1 (Chemicon, Temecula, Calif.), amino-terminus and carboxyl-terminus of APP (22C11), actin (Roche, Basel, Switzerland), Aβ (6E10, 48G) (Signet Laboratories, Dedham, Mass.), phosphor-GSK3α (ser^21, clone BK202) (Upstate, Lake Placid, N.Y.), phospho-GSK3α/β (pTyr^279/216) (Sigma), phospho-GSK-3β (Ser^9) (Sigma) and total GSK-3α/β (Sigma). All antibodies were diluted in TBS containing 5% (w/v) of non-fat dry milk. […] Densitometric analysis was done as previously described using a FluorS Multiimager with Quantity One™ software (39). […] Antibodies used for Western blot included the APP-carboxyl-terminal antibody (1:50)), amino-terminal APP antibody (clone 22C11), or 6E10 (1:1,000), or actin antibody (1:1,500; as an internal reference control). γ-secretase activity was quantified in cell lysates using available kits based on secretase-specific peptides conjugated to fluorogenic reporter molecules.
SweAPP N2a cells and primary neuronal cells derived from Tg2576 mice were treated with varying doses of luteolin to examine luteolin's effect on APP proteolysis. Cellular extracts were collected and analyzed using immunoprecipitation (IP), Western blot, and ELISA. […] SweAPP N2a and primary Tg2576-derived neuronal cells CTF profiles were analyzed following luteolin treatment to determine at which level luteolin impacts amyloid processing.

Tg2576 mice = test: cerebral Aβ levels by ELISA in luteolin-treated Tg2576 mice; assay type: in vivo; conditions: 20 mg/kg i.p. daily for 30 days
Description: (§2) Sixteen (8♂/8♀) Tg2576 mice (Taconic, Germantown, N.Y.) were used; 8 mice received luteolin, and the other 8 received phosphate buffered saline (PBS). Beginning at 8 months of age, Tg2576 mice were intraperitoneally injected with luteolin (20 mg/kg) or PBS daily for 30 days based on previously described methods. These mice were then sacrificed at 9 months of age for analyses of Aβ levels and Aβ load in the brain according to previously described methods. Animals were housed and maintained in the College of Medicine Animal Facility at the University of South Florida (USF), and all experiments were in compliance with protocols approved by the USF Institutional Animal Care and Use Committee.
Eight month-old Tg2576 mice were treated with 20 mg/kg luteolin administered by daily intraperitoneal injection for 30 days to validate the above findings in vivo. […] Phospho-GSK-3α/β-positive neuronal cells were examined under bright-field using an Olympus BX-51 microscope.
Brain homogenates were immunoprecipitated by PS1 antibody and probed for APP to confirm the proposed mechanism. […] To assess this decrease, ELISA was conducted on both soluble and insoluble Aβ1-40, 42.

PS1 = PS1 processing and PS1-APP association in brain homogenates of luteolin-treated Tg2576 mice; assay type: in vivo; conditions: 20 mg/kg i.p. daily for 30 days
Description: as §2
as §1, with “(1:1,000).” for “(1:1,000). Antibodies were obtained against the amino-terminus and carboxyl-terminus of PS1 (Chemicon, Temecula, Calif.), amino-terminus and carboxyl-terminus of APP (22C11), actin (Roche, Basel, Switzerland), Aβ (6E10, 48G) (Signet Laboratories, Dedham, Mass.), phosphor-GSK3α (ser^21, clone BK202) (Upstate, Lake Placid, N.Y.), phospho-GSK3α/β (pTyr^279/216) (Sigma), phospho-GSK-3β (Ser^9) (Sigma) and total GSK-3α/β (Sigma). All antibodies were diluted in TBS containing 5% (w/v) of non-fat dry milk.”, “molecules. […]” for “molecules.”
Brain homogenates from these mice were subsequently analyzed by immunoprecipitation, Western blot, and ELISA, seen in FIGS. 28(A) through 37. […]

O=c1cc(-c2ccc(O)c(O)c2)oc2cc(O)cc(O)c12 [luteolin]
accumulation of both α and β CTFs (increase over control) ([1]; dose dependent, Western blot densitometry): 2-3 fold | Aβ1-40, 42 peptide generation abrogated ([1]; luteolin 20 μM): > 70% | Aβ1-40, 42 peptide generation abrogated ([1]; luteolin 40 μM): > 85% | reduction of soluble Aβ1-40 in brain homogenates (Tg2576 mice): 25% | reduction of soluble Aβ1-42 in brain homogenates (Tg2576 mice): 49% | holo APP expression in brain homogenates (PS1): no significant changes | PS1-APP association in brain homogenates (PS1; IP with PS1 antibody): effectively abolished PS1-APP association | PS1 processing (PS1 CTF to actin ratio) (PS1; brain homogenates): significantly lower levels of PS1 processing
